Laboratory results published in PMC10320005, “In Campylobacter jejuni, a new type of chaperone receives heme from ferrochelatase” (Frontiers in Genetics, 2023).

Experiments:
CgdH1 (Cj0992c) = biological target: T1, CgdH1 (Cj0992c) (Campylobacter jejuni, UniProt Q0P9R0); experiment: HPLC-MS of porphyrin products; assay type: biochemical; conditions: 10 µM copro'gen III, 1 mM SAM, 0.5 mM NADH, E. coli cell extract added, anaerobic, overnight, room temperature; incomplete reaction via harderoporphyrin intermediate
T1 construct: full length (451 residues), C-terminal His-tag (pET-23b), E. coli BL21STAR(DE3)pLysS; Fe-S cluster reconstituted
T1 sequence (Q0P9R0 1-451): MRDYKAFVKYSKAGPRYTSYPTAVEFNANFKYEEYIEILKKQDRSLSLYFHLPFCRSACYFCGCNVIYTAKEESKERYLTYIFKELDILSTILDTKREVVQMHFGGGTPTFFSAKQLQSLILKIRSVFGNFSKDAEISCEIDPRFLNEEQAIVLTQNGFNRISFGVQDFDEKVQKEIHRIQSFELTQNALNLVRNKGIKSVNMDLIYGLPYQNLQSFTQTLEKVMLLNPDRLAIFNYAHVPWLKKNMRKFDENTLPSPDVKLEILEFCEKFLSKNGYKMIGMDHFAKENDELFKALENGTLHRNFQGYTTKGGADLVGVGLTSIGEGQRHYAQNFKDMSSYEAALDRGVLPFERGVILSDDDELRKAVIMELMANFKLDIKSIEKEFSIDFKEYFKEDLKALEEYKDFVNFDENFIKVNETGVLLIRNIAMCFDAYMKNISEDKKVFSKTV

CgdH2 (Cj0363c) = biological target: T2, CgdH2 (Cj0363c) (Campylobacter jejuni, UniProt Q0PBE7); experiment: UV-visible titration of apo-protein, absorbance difference at […] nm; assay type: binding
T2 construct: gene hemN; full length (448 residues; 447 aa in Discussion), C-terminal His-tag (pET-23b), E. coli BL21STAR(DE3)pLysS; apo-form without Fe-S cluster
T2 sequence (Q0PBE7 1-448): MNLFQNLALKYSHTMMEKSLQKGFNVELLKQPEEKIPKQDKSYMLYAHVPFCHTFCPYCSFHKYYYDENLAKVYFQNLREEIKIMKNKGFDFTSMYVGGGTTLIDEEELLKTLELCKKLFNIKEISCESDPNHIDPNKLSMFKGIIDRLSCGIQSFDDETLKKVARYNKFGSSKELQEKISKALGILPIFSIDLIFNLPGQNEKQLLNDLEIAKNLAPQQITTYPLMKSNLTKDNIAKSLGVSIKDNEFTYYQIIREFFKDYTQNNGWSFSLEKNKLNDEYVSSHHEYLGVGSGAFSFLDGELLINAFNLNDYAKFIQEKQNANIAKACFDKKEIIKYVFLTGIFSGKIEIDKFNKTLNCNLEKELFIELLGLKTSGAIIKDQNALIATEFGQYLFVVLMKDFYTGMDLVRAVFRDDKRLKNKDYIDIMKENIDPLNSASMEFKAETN

PgdH2 (Cj0362) = biological target: T3, PgdH2 (Cj0362) (Campylobacter jejuni, UniProt Q0PBE8); experiment: fluorescence of protoporphyrin IX ([…] nm) with E. coli membrane fraction versus empty plasmid; assay type: biochemical; conditions: 500 nM proto'gen IX, 150 mM NaCl, 20% glycerol, 5 mM DTT, Tris-HCl pH 8, aerobic
T3 construct: expressed from pPR-IBA2 (Strep-tag vector) in E. coli BL21STAR(DE3)pLysS; membrane fraction, not purified
T3 sequence (Q0PBE8 1-150): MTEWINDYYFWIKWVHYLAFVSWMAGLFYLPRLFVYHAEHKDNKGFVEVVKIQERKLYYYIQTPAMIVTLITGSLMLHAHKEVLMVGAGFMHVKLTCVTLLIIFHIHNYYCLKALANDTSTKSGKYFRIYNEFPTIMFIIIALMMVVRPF

PpfC (Cj0503c) = biological target: T4, PpfC (Cj0503c) (Campylobacter jejuni, UniProt Q9PI08); experiment: ferrochelatase activity, decrease of protoporphyrin IX at […] nm; assay type: biochemical; conditions: 10 µM protoporphyrin IX, 20 µM (NH4)2Fe(SO4)2, 5 mM DTT, 150 mM NaCl, 20% glycerol, Tris-HCl pH 8, anaerobic, room temperature
T4 construct: gene hemH; N-terminal Strep-tag (pPR-IBA2), E. coli BL21STAR(DE3)pLysS, solubilised with Triton X-100
T4 sequence (Q9PI08 1-303): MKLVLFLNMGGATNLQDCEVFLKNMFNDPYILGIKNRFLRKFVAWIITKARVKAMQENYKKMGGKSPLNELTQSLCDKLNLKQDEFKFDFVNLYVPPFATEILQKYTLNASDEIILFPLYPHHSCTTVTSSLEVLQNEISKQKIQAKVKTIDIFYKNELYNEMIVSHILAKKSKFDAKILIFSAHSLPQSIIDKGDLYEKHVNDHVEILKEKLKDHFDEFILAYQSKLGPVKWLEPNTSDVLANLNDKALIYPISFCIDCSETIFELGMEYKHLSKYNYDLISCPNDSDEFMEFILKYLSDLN

UroD (Cj1243) = biological target: T5, UroD (Cj1243) (Campylobacter jejuni, UniProt Q9PN54); experiment: linked assay, UV-visible spectroscopy and HPLC-MS of coproporphyrin III; assay type: biochemical; conditions: uro'gen III made in situ from porphobilinogen with D. vulgaris PbgS and UroS; Tris-HCl pH 8, anaerobic, overnight
T5 construct: gene hemE; N-terminal Strep-tag (pPR-IBA2), E. coli BL21STAR(DE3)pLysS
T5 sequence (Q9PN54 1-340): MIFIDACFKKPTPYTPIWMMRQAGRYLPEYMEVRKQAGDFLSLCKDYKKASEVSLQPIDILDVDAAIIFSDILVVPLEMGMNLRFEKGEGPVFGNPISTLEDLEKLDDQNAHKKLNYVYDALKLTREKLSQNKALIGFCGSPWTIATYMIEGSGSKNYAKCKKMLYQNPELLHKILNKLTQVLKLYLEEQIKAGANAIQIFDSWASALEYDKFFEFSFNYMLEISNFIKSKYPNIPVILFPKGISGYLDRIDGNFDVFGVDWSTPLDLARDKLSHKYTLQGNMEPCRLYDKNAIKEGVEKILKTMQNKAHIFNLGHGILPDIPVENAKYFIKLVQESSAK

## Cc1c2[nH]c(c1CCC(=O)O)Cc1[nH]c(c(CCC(=O)O)c1C)Cc1[nH]c(c(CCC(=O)O)c1C)Cc1[nH]c(c(C)c1CCC(=O)O)C2 [copro'gen III]
CgdH1 (Cj0992c)
  HPLC-MS of porphyrin products: The expected final reactional product, protoporphyrin IX (the oxidized form of proto'gen IX), was observed

## C=CC1=C(C)C2=Cc3c(C=C)c(C)c4[n]3[Fe]([Cl])[n]3c(c(C)c(CCC(=O)O)c3=CC3=NC(=C4)C(C)=C3CCC(=O)O)=CC1=N2 [hemin]
CgdH2 (Cj0363c)
  Kd: 4.9 ± 1 µM

## C=Cc1c2[nH]c(c1C)Cc1[nH]c(c(CCC(=O)O)c1C)Cc1[nH]c(c(C)c1CCC(=O)O)Cc1[nH]c(c(C)c1C=C)C2 [proto'gen IX]
PgdH2 (Cj0362)
  fluorescence of protoporphyrin IX (390/630 nm) with E. coli membrane fraction ve: Cells containing Cj0362 exhibited much higher activity for the oxidation of proto'gen IX

## C=CC1=C(C)c2cc3[nH]c(cc4nc(cc5[nH]c(cc1n2)c(C)c5CCC(=O)O)C(CCC(=O)O)=C4C)c(C)c3C=C [protoporphyrin IX]
PpfC (Cj0503c)
  ferrochelatase activity, decrease of protoporphyrin IX at 408 nm: C. jejuni Cj0503c exhibits a ferrochelatase specific activity

## O=C(O)CCc1c2[nH]c(c1CC(=O)O)Cc1[nH]c(c(CC(=O)O)c1CCC(=O)O)Cc1[nH]c(c(CC(=O)O)c1CCC(=O)O)Cc1[nH]c(c(CCC(=O)O)c1CC(=O)O)C2 [uro'gen III]
UroD (Cj1243)
  linked assay, UV-visible spectroscopy and HPLC-MS of coproporphyrin III: confirmed the formation of copro'gen III
